{
  "source": "patent US8414989B2",
  "about": "“Cyclodextrin compositions, articles, and methods” (Cellresin Technologies, LLC, priority 2011, dated 2013)",
  "format_in_all_cases": "physicochemical",
  "key": {"[1]": {"assay": "Example 1: 1-MCP headspace release from UV-cured isobornyl acrylate coating with 1-MCP/c/α-CD on PET film (GC-FID)", "settings": "1 cm x 1 cm cured coated square, 250 mL bottle", "method": "A cyclodextrin inclusion complex is formed from α-cyclodextrin and 1-methyl cyclopropene (1-MCP) using the technique described by Neoh, T. L. et al., J. Agric. Food Chem. 2007, 55, 11020-11026 “Kinetics of Molecular Encapsulation of 1-Methylcyclopropene into α-Cyclodextrin.” The inclusion complex is termed “1-MCP/c/α-CD.” A 500 mL bottle is charged with 97.0 g of isobornyl acrylate, 1.0 g of hexanediol diacrylate, 1.0 g of 1-MCP/c/α-CD, and 1.0 g of […] (IRGACURE® 184, obtained from Ciba Specialty Chemicals Corp. of Tarrytown, N.Y.). The bottle is firmly capped and the components are mixed by shaking the bottle briefly by hand.\nAbout 2 mL of the mixture is removed with a metered dropper and dispensed on an 8.5 inch by 11 inch PET film and drawn down using a metering rod (Mayer rod) having a delivered coating thickness of 25 microns. Then the coated PET film is placed on a flat surface approximately 5 cm beneath a medium pressure mercury arc lamp operating at 200 watts per inch (79 watts per cm). After 30 seconds under the lamp, the film is removed. A silicone coated PET sheet (about 50 microns thick) is placed over the cured coating and allowed to sit on a laboratory bench overnight.\nA die cutter is used to cut a 1 cm by 1 cm square of the coated portion of the sheet. […] Headspace concentrations of 1-MCP are measured after 1 hour following introduction of the coated square into bottle. The 1-MCP headspace concentration is quantified using gas chromatography by removing 1 mL of gas from the sample bottle using a gas sampling valve interfaced directly to a GC column having FID detector.\nThen 50 μl of deionized water is injected into the jar. […] The sealed jar is allowed to sit on the lab bench for one hour after the injection of water, then a second headspace sample is analyzed. A final headspace sample is analyzed 24 hours after the injection of water. At 1 hour after injection of the water, 0.5 ppm of 1-MCP is measured in the headspace. After 24 hours, 0.5 ppm of 1-MCP is measured in the headspace."}, "[2]": {"assay": "Example 8: 1-MCP headspace release from cured coating with varying amounts of liquid water", "settings": "4.0 wt-% 1-MCP/c/α-CD coating, 5 cm x 10 cm, 250 mL bottle", "from_the_text": "A 4.0 wt-% 1-MCP/c/α-CD coating blend was made according to the technique of Example 3. A 20 cm by 20 cm polyethylene extrusion coated paper sheet was coated with the mixture using the technique of Example 2. A paper cutter was used to cut nine, 5 cm by 10 cm rectangles from the sheet. The cut, coated rectangles were passed by hand about 10 cm beneath a medium pressure mercury arc lamp operating at 79 watts per cm. After 1.5 seconds exposure to the lamp, the sample was removed. The cured sample was allowed to sit on a laboratory bench overnight coating side down.\nEach cured sample was placed in a 250 mL serum bottle. Each bottle was sealed with a TEFLON® faced silicone septum. The amount of liquid water that would, in vapor form, correspond to 100% relative humidity (RH) at 20° C. (provided at http://hyperphysics.phy-astr.gsu.edu/hbase/kinetic/vappre.html#c) is 17.3 g/m^3, or 17.3 g per 1000 L. The density of water at 20° C. is 0.9982 g/mL. Thus, at 20° C., 4.3 μL, of liquid water added to an enclosed volume of 250 mL and containing no other water will vaporize to give 100% RH. Our laboratory facility temperature was 20° C.±5° C.\nThree of the bottles were injected with 10 μL, of deionized water, three with 20 μL of deionized water, and three with 50 μL of deionized water. […] The headspace of each bottle was analyzed for 1-MCP at 2 hours, 4 hours, 8 hours, 24 hours, and 48 hours after the injection of water, wherein the headspace analysis was conducted using the analytical technique employed in Example 3."}, "[3]": {"assay": "Example 11: 1-MCP headspace release from UV coating on polyethylene coated paperboard", "settings": "UV coating with 1-MCP/c/α-CD on PE coated paperboard, 5 cm x 5 cm, 250 mL jar, 200 μL water, average", "method": "A 20 mL bottle was charged with 9.6 g of UV curable coating formulation (VP 10169/60 MF-2NE, obtained from Verga GmbH of Aschau am Inn, Germany). Then 0.4 g of 1-MCP/c/α-CD (4.7% 1-MCP, obtained from AgroFresh of […], Pa.) was added to the bottle. The bottle was firmly capped and the components mixed by shaking the bottle by hand until the contents appeared to be uniformly dispersed, providing a UV curable mixture.\nA polyethylene coated paperboard was prepared by heat laminating a 30 μm thick polyethylene film to a 20 cm×20 cm section of 600 μm thick solid bleached sulfate (SBS) paperboard (obtained from Graphic Packaging International of_) using a heated vacuum press. A rubber ink roller was used to deliver a thin (nominally 0.3 μm) coating of the UV curable mixture to the laboratory prepared polyethylene coated paperboard, using the technique of Example 2. A paper cutter was used to cut a 20 cm by 10 cm rectangle of the coated portion of the board. The coated rectangle was passed by hand about 10 cm beneath a medium pressure mercury arc lamp operating at 79 watts per cm. After 1.5 seconds exposure to the lamp, the sample was removed. The cured sample was allowed to sit on a laboratory bench overnight, coating side down.\nAfter curing, 5 cm by 5 cm sections were cut from the 20 cm by 10 cm rectangles. Each section was individually placed into a 250 mL jar (tall clear WM SEPTA-JAR™, Fisher Scientific P/N 05-719-452; obtained from Fisher Scientific of Waltham, Mass.) equipped with a TEFLON™ faced septum (Fisher Scientific P/N 14-965-84). Each jar was injected with 200 μL of deionized water. […] Jar headspace was analyzed for 1-MCP at […] time periods (0.17, 0.5, 1, 2, 4 and 7 hours) after the injection of water, using the analytical technique employed in Example 3. The results exemplify that greater amounts of 1-MCP were released into the headspace from the UV coated substrate with increasing time."}},
  "data": [
    {"smiles": "CC1=CC1", "note": "[1-MCP, 1-methylcyclopropene]", "values": [
      {"measurement": "Headspace concentration of 1-MCP", "setting": "[1]; 1 hour after injection of 50 μl water", "value": 0.5, "unit": "ppm"},
      {"measurement": "Headspace concentration of 1-MCP", "setting": "[1]; 24 hours after injection of 50 μl water", "value": 0.5, "unit": "ppm"},
      {"measurement": "Headspace concentration of 1-MCP", "setting": "[1]; no water added, 1 hour", "value": "No measurable concentration"},
      {"measurement": "Headspace concentration of 1-MCP, average", "setting": "[2]; 10 μL H2O, 2 hr", "value": "1.3 ppm (v/v)"},
      {"measurement": "Headspace concentration of 1-MCP, average", "setting": "[2]; 10 μL H2O, 4 hr", "value": "2.5 ppm (v/v)"},
      {"measurement": "Headspace concentration of 1-MCP, average", "setting": "[2]; 10 μL H2O, 8 hr", "value": "3.8 ppm (v/v)"},
      {"measurement": "Headspace concentration of 1-MCP, average", "setting": "[2]; 10 μL H2O, 24 hr", "value": "7.1 ppm (v/v)"},
      {"measurement": "Headspace concentration of 1-MCP, average", "setting": "[2]; 10 μL H2O, 48 hr", "value": "10.0 ppm (v/v)"},
      {"measurement": "Headspace concentration of 1-MCP, average", "setting": "[2]; 20 μL H2O, 2 hr", "value": "2.6 ppm (v/v)"},
      {"measurement": "Headspace concentration of 1-MCP, average", "setting": "[2]; 20 μL H2O, 4 hr", "value": "5.8 ppm (v/v)"},
      {"measurement": "Headspace concentration of 1-MCP, average", "setting": "[2]; 20 μL H2O, 8 hr", "value": "9.2 ppm (v/v)"},
      {"measurement": "Headspace concentration of 1-MCP, average", "setting": "[2]; 20 μL H2O, 24 hr", "value": "15.7 ppm (v/v)"},
      {"measurement": "Headspace concentration of 1-MCP, average", "setting": "[2]; 20 μL H2O, 48 hr", "value": "20.5 ppm (v/v)"},
      {"measurement": "Headspace concentration of 1-MCP, average", "setting": "[2]; 50 μL H2O, 2 hr", "value": "8.7 ppm (v/v)"},
      {"measurement": "Headspace concentration of 1-MCP, average", "setting": "[2]; 50 μL H2O, 4 hr", "value": "18.6 ppm (v/v)"},
      {"measurement": "Headspace concentration of 1-MCP, average", "setting": "[2]; 50 μL H2O, 8 hr", "value": "30.8 ppm (v/v)"},
      {"measurement": "Headspace concentration of 1-MCP, average", "setting": "[2]; 50 μL H2O, 24 hr", "value": "55.3 ppm (v/v)"},
      {"measurement": "Headspace concentration of 1-MCP, average", "setting": "[2]; 50 μL H2O, 48 hr", "value": "63.0 ppm (v/v)"},
      {"measurement": "Headspace concentration of 1-MCP", "setting": "[3]; 0.17 hours", "value": "0.16 ppm (v/v)"},
      {"measurement": "Headspace concentration of 1-MCP", "setting": "[3]; 0.5 hours", "value": "0.63 ppm (v/v)"},
      {"measurement": "Headspace concentration of 1-MCP", "setting": "[3]; 1 hour", "value": "1.6 ppm (v/v)"},
      {"measurement": "Headspace concentration of 1-MCP", "setting": "[3]; 2 hours", "value": "3.6 ppm (v/v)"},
      {"measurement": "Headspace concentration of 1-MCP", "setting": "[3]; 4 hours", "value": "7.3 ppm (v/v)"},
      {"measurement": "Headspace concentration of 1-MCP", "setting": "[3]; 7 hours", "value": "12.5 ppm (v/v)"}
    ]}
  ]
}
